Assay results published in US7056893B2, “Topical treatment for prevention of ocular infections” (Insite Vision, Inc., priority 1999, dated 2006).

Legend:
[1] = assay type: physicochemical
Protocol: The thermal stability of azithromycin at 40° C. is measured in 50 mM phosphate buffer adjusted to the pH values indicated in FIG. 2. FIG. 3 is a secondary plot of data derived from the azithromycin stability profiles in FIG. 2. […] 6-6.5. A formulation pH of 6.3 is preferred to minimize degradation of azithromycin in aqueous formulations including those that employ DuraSite®.

[2] = assay type: physicochemical; remark: listed apart in the source
Excerpt: Ophthalmic carrier(s) is used in a broad sense and includes any material or composition that can contain and release the azalide antibiotic and that is compatible with the eye. Typically the ophthalmically acceptable carrier is water or an aqueous solution or suspension, but also includes oils such as those used to make ointments and polymer matrices such as used in ocular inserts. […] The stabilized compositions of this invention advantageously employ the increased water solubility of the protonated form of the antibiotic that is compatible with the optimal pH range for azalide antibiotic stability. […] Accordingly, stabilized aqueous solution of an azalide antibiotic can be formed and used for topical application. Alternatively, aqueous compositions containing a portion of the azalide antibiotic in suspension may be employed for topical administration. Ointments and solid dosage forms can also be used as delivery compositions as are well known in the art. The concentration of azalide antibiotic present in the ophthalmic composition depends upon the dosage form, the release rate, the dosing regimen, and the location and type of infection. […]
The solubility of azithromycin is measured as a function of pH in 0.2 M citric acid buffer over the range of pH 5.91 to 9.0.

For `CCC1OC(=O)C(C)C(OC2CC(C)(OC)C(O)C(C)O2)C(C)C(OC2OC(C)CC(N(C)C)C2O)C(C)(O)CC(C)CN(C)C(C)C(O)C1(C)O` (stereo not drawn) [Azithromycin, N-methyl-11-aza-10-deoxo-10-dihydroerythromycin], the “pH interval of maximum stability” value [1] was 5.0-7.0 and the “pH of stability maximum” value [1] was “about 6.3”.
In the case of `CC[C@H]1OC(=O)[C@H](C)[C@@H](O[C@H]2C[C@@](C)(OC)[C@@H](O)[C@H](C)O2)[C@H](C)[C@@H](O[C@@H]2O[C@H](C)C[C@H](N(C)C)[C@H]2O)[C@](C)(O)C[C@@H](C)CN(C)[C@H](C)[C@@H](O)[C@]1(C)O.O.O` [azithromycin dihydrate], the water solubility [2] is reported as 200 to 250 mg/mL.
